Test results from ChEMBL document CHEMBL6083262, “Stereorandomized Oncocins with Preserved Ribosome Binding and Antibacterial Activity” (J Med Chem, 2024).
Converted amounts (≈) assume the structure as drawn. The source made the active and inactive calls. No cut-off for these calls is given here. Non-standard residues stand in square brackets, D forms with d. Residues, ends and D or L forms follow the SMILES beside them. ξ: configuration not given here. ξY = NC(Cc1ccc(O)cc1)C(=O)O; ξR = N=C(N)NCCCC(N)C(=O)O; ξN = NC(=O)CC(N)C(=O)O; ξI = CCC(C)C(N)C(=O)O; ξP = O=C(O)C1CCCN1

Experiments:
Klebsiella pneumoniae [1] = experiment: Bacteriostatic activity against Klebsiella pneumoniae assessed as detachment of inner membrane from outer membrane by measuring a large void at 8 times MIC in full muller hinton medium by transmission electron microscopic analysis; type: functional, organism-based
Klebsiella pneumoniae [2] = experiment: Bacteriostatic activity against Klebsiella pneumoniae assessed as membrane perturbation at 8 times MIC in full muller hinton medium by transmission electron microscopic analysis; type: functional, organism-based
Escherichia coli [3] = experiment: Bacteriostatic activity against Escherichia coli at 8 times MIC in full muller hinton medium by Time-kill assay; type: functional, organism-based
Klebsiella pneumoniae [4] = experiment: Bacteriostatic activity against Klebsiella pneumoniae assessed as small intracellular vesicles at 8 times MIC in full muller hinton medium by transmission electron microscopic analysis; type: functional, organism-based
Escherichia coli [5] = experiment: Bacteriostatic activity against Escherichia coli assessed as detachment of inner membrane from outer membrane by measuring a large void at 8 times MIC in full muller hinton medium by transmission electron microscopic analysis; type: functional, organism-based
Escherichia coli [6] = experiment: Bacteriostatic activity against Escherichia coli assessed as membrane perturbation at 8 times MIC in full muller hinton medium by transmission electron microscopic analysis; type: functional, organism-based
Klebsiella pneumoniae [7] = experiment: Bacteriostatic activity against Klebsiella pneumoniae at 8 times MIC in full muller hinton medium by Time-kill assay; type: functional, organism-based
Escherichia coli [8] = experiment: Bacteriostatic activity against Escherichia coli assessed as small intracellular vesicles at 8 times MIC in full muller hinton medium by transmission electron microscopic analysis; type: functional, organism-based
Pseudomonas aeruginosa [9] = experiment: Antibacterial activity against multidrug-resistant Pseudomonas aeruginosa PA14 2P4 harboring pmrB mutant incubated for 16 to 20 hrs in full muller hinton medium by broth microdilution method; type: functional; details: time 16-20 hrs
[10] = Hemolytic activity in human RBC incubated for 4 hrs; type: toxicity, cell-based; details: erythrocyte
Pseudomonas aeruginosa [11] = experiment: Antibacterial activity against multidrug-resistant Pseudomonas aeruginosa PA14 incubated for 16 to 20 hrs in full muller hinton medium by broth microdilution method; type: functional; details: time 16-20 hrs
Staphylococcus aureus [12] = experiment: Antimicrobial activity against methicillin-resistant Staphylococcus aureus COL incubated for 16 to 20 hrs in full muller hinton medium by broth microdilution method; type: functional; details: time 16-20 hrs
Pseudomonas aeruginosa [13] = experiment: Antibacterial activity against multidrug-resistant Pseudomonas aeruginosa PA14 4.13 harboring phoQ mutant incubated for 16 to 20 hrs in full muller hinton medium by broth microdilution method; type: functional; details: time 16-20 hrs
Pseudomonas aeruginosa [14] = experiment: Antibacterial activity against multidrug-resistant Pseudomonas aeruginosa PA14 4.18 harboring pmrB mutant incubated for 16 to 20 hrs in full muller hinton medium by broth microdilution method; type: functional; details: time 16-20 hrs
Pseudomonas aeruginosa [15] = experiment: Antibacterial activity against multidrug-resistant Pseudomonas aeruginosa clinical isolate ZEM9A incubated for 16 to 20 hrs in full muller hinton medium by broth microdilution method; type: functional; details: time 16-20 hrs
rRNA = experiment: Binding affinity to [gamma32 P-ATP] labeled Escherichia coli MG1655 23S ribosomal RNA (5-CCCTTGGGACCTACTTC-3') at U2506 position assessed as increase in band intensity at 1 uM incubated for 2.5 hrs in full muller hinton medium by CMCT based gel electrophoresis; type: nucleic-acid assay
Staphylococcus aureus [16] = experiment: Antimicrobial activity against methicillin-resistant Staphylococcus aureus COL incubated for 16 to 20 hrs in 12.5 % muller hinton medium by broth microdilution method; type: functional; details: time 16-20 hrs
Escherichia coli [17] = experiment: Antimicrobial activity against Escherichia coli W3110 incubated for 16 to 20 hrs in 12.5 % muller hinton medium by broth microdilution method; type: functional; details: time 16-20 hrs
Escherichia coli [18] = experiment: Antimicrobial activity against Escherichia coli W3110 incubated for 16 to 20 hrs in full muller hinton medium by broth microdilution method; type: functional; details: time 16-20 hrs
Klebsiella pneumoniae [19] = experiment: Antimicrobial activity against Klebsiella pneumoniae NCTC 418 incubated for 16 to 20 hrs in full muller hinton medium by broth microdilution method; type: functional; details: time 16-20 hrs

Row | SMILES | Activity (Klebsiella pneumoniae [1]) | Activity (Klebsiella pneumoniae [2]) | Activity (Escherichia coli [3]) | Activity (Klebsiella pneumoniae [4]) | Activity (Escherichia coli [5]) | Activity (Escherichia coli [6]) | Activity (Klebsiella pneumoniae [7]) | Activity (Escherichia coli [8]) | MIC (Pseudomonas aeruginosa [9]) [µg/mL] | MHC [10] [µg/mL] | MIC (Pseudomonas aeruginosa [11]) [µg/mL] | MIC (Staphylococcus aureus [12]) [µg/mL] | MIC (Pseudomonas aeruginosa [13]) [µg/mL] | MIC (Pseudomonas aeruginosa [14]) [µg/mL] | MIC (Pseudomonas aeruginosa [15]) [µg/mL] | Activity (rRNA) | MIC (Staphylococcus aureus [16]) [µg/mL] | MIC (Escherichia coli [17]) [µg/mL] | MIC (Escherichia coli [18]) [µg/mL] | MIC (Klebsiella pneumoniae [19]) [µg/mL]
1 | CC[C@H]1OC(=O)[C@H](C)[C@@H](O[C@H]2C[C@@](C)(OC)[C@@H](O)[C@H](C)O2)[C@H](C)[C@@H](O[C@@H]2O[C@H](C)C[C@H](N(C)C)[C@H]2O)[C@](C)(O)C[C@@H](C)CN(C)[C@H](C)[C@@H](O)[C@]1(C)O | Active | Active; Few Membrane Perturbation Observed | Active | Active | Active | Active; Few Membrane Perturbation Observed | Active | Active |  |  |  |  |  |  |  |  |  |  |  | 
2 | CC[C@H](C)[C@H](NC(=O)[C@@H](CCCNC(=N)N)NC(=O)[C@H](CCCNC(=N)N)NC(=O)[C@@H]1CCCN1C(=O)[C@@H]1CCCN1C(=O)[C@H](CCCNC(=N)N)NC(=O)[C@@H]1CCCN1C(=O)[C@H](CCCNC(=N)N)NC(=O)[C@@H]1CCCN1C(=O)[C@H](CC(C)C)NC(=O)[C@H](Cc1ccc(O)cc1)NC(=O)[C@@H]1CCCN1C(=O)[C@@H]1CCCN1C(=O)[C@H](CCCCN)NC(=O)[C@H](CC(=O)O)NC(=O)[C@@H](N)C(C)C)C(=O)N[C@@H](Cc1ccc(O)cc1)C(=O)N[C@@H](CC(N)=O)C(=O)N[C@H](CCCNC(=N)N)C(N)=O (H-VDKPPYLPRPRPPR[dR]IYN[dR]-NH2) |  |  |  |  |  |  |  |  | > 64 | > 1000 | > 32 | > 64 | > 32 | > 32 | > 64 |  |  |  |  | 
3 | CC[C@@H](C)[C@@H](NC(=O)[C@@H](CCCNC(=N)N)NC(=O)[C@H](CCCNC(=N)N)NC(=O)[C@@H]1CCCN1C(=O)[C@@H]1CCCN1C(=O)[C@H](CCCNC(=N)N)NC(=O)[C@@H]1CCCN1C(=O)[C@H](CCCNC(=N)N)NC(=O)[C@@H]1CCCN1C(=O)[C@H](CC(C)C)NC(=O)[C@H](Cc1ccc(O)cc1)NC(=O)[C@@H]1CCCN1C(=O)[C@@H]1CCCN1C(=O)[C@H](CCCCN)NC(=O)[C@H](CC(=O)O)NC(=O)[C@@H](N)C(C)C)C(=O)N[C@H](Cc1ccc(O)cc1)C(=O)N[C@H](CC(N)=O)C(=O)N[C@H](CCCNC(=N)N)C(N)=O (H-VDKPPYLPRPRPPR[dR][dI][dY][dN][dR]-NH2) | Active | Active; Few Membrane Perturbation Observed | Active | Active | Active | Active; Few Membrane Perturbation Observed | Active | Active | > 64 | > 1000 | > 64 | > 64 |  |  | > 64 | Active |  |  |  | 
4 | CCC(C)C(NC(=O)C(CCCNC(=N)N)NC(=O)C(CCCNC(=N)N)NC(=O)[C@@H]1CCCN1C(=O)[C@@H]1CCCN1C(=O)[C@H](CCCNC(=N)N)NC(=O)[C@@H]1CCCN1C(=O)[C@H](CCCNC(=N)N)NC(=O)[C@@H]1CCCN1C(=O)[C@H](CC(C)C)NC(=O)[C@H](Cc1ccc(O)cc1)NC(=O)[C@@H]1CCCN1C(=O)[C@@H]1CCCN1C(=O)[C@H](CCCCN)NC(=O)[C@H](CC(=O)O)NC(=O)[C@@H](N)C(C)C)C(=O)NC(Cc1ccc(O)cc1)C(=O)NC(CC(N)=O)C(=O)NC(CCCNC(=N)N)C(N)=O (stereo partly specified) (H-VDKPPYLPRPRPP[ξR][ξR][ξI][ξY][ξN][ξR]-NH2) |  |  |  |  |  |  |  |  |  | > 1000 |  | > 64 |  |  |  |  | > 16 | 1 (≈ 0.418 µM) | 8 (≈ 3.35 µM) | 4 (≈ 1.67 µM)
5 | CCC(C)C(NC(=O)C(CCCNC(=N)N)NC(=O)C(CCCNC(=N)N)NC(=O)C1CCCN1C(=O)[C@@H]1CCCN1C(=O)[C@H](CCCNC(=N)N)NC(=O)[C@@H]1CCCN1C(=O)[C@H](CCCNC(=N)N)NC(=O)[C@@H]1CCCN1C(=O)[C@H](CC(C)C)NC(=O)[C@H](Cc1ccc(O)cc1)NC(=O)[C@@H]1CCCN1C(=O)[C@@H]1CCCN1C(=O)[C@H](CCCCN)NC(=O)[C@H](CC(=O)O)NC(=O)[C@@H](N)C(C)C)C(=O)NC(Cc1ccc(O)cc1)C(=O)NC(CC(N)=O)C(=O)NC(CCCNC(=N)N)C(N)=O (stereo partly specified) (H-VDKPPYLPRPRP[ξP][ξR][ξR][ξI][ξY][ξN][ξR]-NH2) |  |  |  |  |  |  |  |  |  | > 1000 |  | > 64 |  |  |  |  | > 16 | 1 (≈ 0.418 µM) | 8 (≈ 3.35 µM) | 4 (≈ 1.67 µM)
